ChEMBL document CHEMBL1201862, “PubChem BioAssay data set” (2004)
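All cell lines were grown in 96-well plates and treated with compound for 48 hours. Here, GI50 denotes the concentration required for 50% inhibition of growth.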 Calls of active or inactive are those of the source. Cut-off read from the data, not from the text of the source: active = GI50 up to about 1.1 µM and inactive = higher.

Columns and labels:
Experiment in all cases: NCI anticancer screen, dose series, 48 h
K562 = test system: K562
XF498 = test system: XF498
COLO 205 = test system: COLO 205
SNB-75 = test system: SNB-75
LXFL 529 = test system: LXFL 529
UO-31 = test system: UO-31
DMS-114 = test system: DMS-114
SF-539 = test system: SF-539
SK-MEL-28 = test system: SK-MEL-28
DLD-1 = test system: DLD-1
TK-10 = test system: TK-10
M19-MEL = test system: M19-MEL
SK-MEL-2 = test system: SK-MEL-2
SNB-19 = test system: SNB-19
DMS-273 = test system: DMS-273
NCI-H522 = test system: NCI-H522
NCI-H226 = test system: NCI-H226
SK-OV-3 = test system: SK-OV-3
HCT-116 = test system: HCT-116
KM12 = test system: KM12
HL-60 = test system: HL-60
LOX IMVI = test system: LOX IMVI
Malme-3M = test system: Malme-3M
ACHN = test system: ACHN
CAKI-1 = test system: CAKI-1
OVCAR-4 = test system: OVCAR-4
A498 = test system: A498
OVCAR-3 = test system: OVCAR-3
UACC-257 = test system: UACC-257
EKVX = test system: EKVX
CCRF-CEM = test system: CCRF-CEM
786-0 = test system: 786-0
RXF 631 = test system: RXF 631
SF-268 = test system: SF-268
SN12C = test system: SN12C
HCC 2998 = test system: HCC 2998
IGROV-1 = test system: IGROV-1
HOP-62 = test system: HOP-62
OVCAR-8 = test system: OVCAR-8
A549 = test system: A549
RPMI-8226 = test system: RPMI-8226
HT-29 = test system: HT-29
HOP-18 = test system: HOP-18
OVCAR-5 = test system: OVCAR-5
SK-MEL-5 = test system: SK-MEL-5
HOP-92 = test system: HOP-92
NCI-H460 = test system: NCI-H460
NCI-H23 = test system: NCI-H23
SNB-78 = test system: SNB-78
RXF 393 = test system: RXF 393
M14 = test system: M14
SF-295 = test system: SF-295
HCT-15 = test system: HCT-15
U-251 = test system: U-251
KM-20L2 = test system: KM-20L2
UACC-62 = test system: UACC-62
SR = test system: SR
MOLT-4 = test system: MOLT-4
SW-620 = test system: SW-620
Hs-578T = test system: Hs-578T
PC-3 = test system: PC-3
DU-145 = test system: DU-145
MDA-MB-231 = test system: MDA-MB-231
MDA-N = test system: MDA-N
T47D = test system: T47D
MCF7 = test system: MCF7
BT-549 = test system: BT-549

With COc1cccc(/C=C/C(=O)c2sc(C(N)=S)nc2C)c1O the GI50 (K562) was 42.4 µM (inactive), the GI50 (XF498) was > 100 µM (inactive) and the GI50 (COLO 205) was > 68.2 µM (inactive). The GI50 (SNB-75) was > 100 µM (inactive), the GI50 (LXFL 529) was 14.3 µM (inactive) and the GI50 (UO-31) was 56.4 µM (inactive). The GI50 (DMS-114) was 50.6 µM (inactive), the GI50 (SF-539) was 52.7 µM (inactive) and the GI50 (SK-MEL-28) was > 100 µM (inactive). For the same molecule, the GI50 (DLD-1) was 28.3 µM (inactive), the GI50 (TK-10) was > 100 µM (inactive) and the GI50 (M19-MEL) was 34.4 µM (inactive). For the same molecule, the GI50 (SK-MEL-2) was > 100 µM (inactive), the GI50 (SNB-19) was > 100 µM (inactive) and the GI50 (DMS-273) was 28.6 µM (inactive). The GI50 (NCI-H522) was > 48.3 µM (inactive), the GI50 (NCI-H226) was > 100 µM (inactive) and the GI50 (SK-OV-3) was > 100 µM (inactive). For the same molecule, the GI50 (HCT-116) was 38.5 µM (inactive), the GI50 (KM12) was > 62.2 µM (inactive) and the GI50 (HL-60) was 22.2 µM (inactive). The GI50 (LOX IMVI) was 22.4 µM (inactive), the GI50 (Malme-3M) was > 100 µM (inactive) and the GI50 (ACHN) was > 100 µM (inactive). The GI50 (CAKI-1) was > 100 µM (inactive), the GI50 (OVCAR-4) was > 72.8 µM (inactive) and the GI50 (A498) was > 100 µM (inactive). For the same molecule, the GI50 (OVCAR-3) was > 60.3 µM (inactive), the GI50 (UACC-257) was > 100 µM (inactive) and the GI50 (EKVX) was > 100 µM (inactive). The GI50 (CCRF-CEM) was 21.4 µM (inactive), the GI50 (786-0) was 34.8 µM (inactive) and the GI50 (RXF 631) was 31.1 µM (inactive). For the same molecule, the GI50 (SF-268) was > 86.3 µM (inactive), the GI50 (SN12C) was > 100 µM (inactive) and the GI50 (HCC 2998) was 75.5 µM (inactive). The GI50 (IGROV-1) was > 61.5 µM (inactive), the GI50 (HOP-62) was > 100 µM (inactive) and the GI50 (OVCAR-8) was > 96.2 µM (inactive). For the same molecule, the GI50 (A549) was > 100 µM (inactive), the GI50 (RPMI-8226) was 20.5 µM (inactive) and the GI50 (HT-29) was > 100 µM (inactive). The GI50 (HOP-18) was > 41.5 µM (inactive), the GI50 (OVCAR-5) was > 100 µM (inactive) and the GI50 (SK-MEL-5) was > 100 µM (inactive). For the same molecule, the GI50 (HOP-92) was > 100 µM (inactive), the GI50 (NCI-H460) was > 76.4 µM (inactive) and the GI50 (NCI-H23) was 68.1 µM (inactive). The GI50 (SNB-78) was > 100 µM (inactive), the GI50 (RXF 393) was > 74.3 µM (inactive) and the GI50 (M14) was > 77.4 µM (inactive). For the same molecule, the GI50 (SF-295) was > 94.6 µM (inactive), the GI50 (HCT-15) was 26.1 µM and the GI50 (U-251) was 28.8 µM (inactive). The GI50 (KM-20L2) was > 100 µM (inactive), the GI50 (UACC-62) was > 100 µM (inactive) and the GI50 (SR) was 12.5 µM (inactive). For the same molecule, the GI50 (MOLT-4) was 25.1 µM (inactive) and the GI50 (SW-620) was 21.2 µM (inactive).

For O=C1c2ccccc2C(=O)c2sc(Nc3ccc([N+](=O)[O-])cc3)nc21, the GI50 (K562) was 2.17 µM (inactive), the GI50 (XF498) was 2.17 µM (inactive) and the GI50 (COLO 205) was 8.59 µM (inactive). The GI50 (SNB-75) was 7.89 µM (inactive), the GI50 (LXFL 529) was 1.66 µM (inactive) and the GI50 (UO-31) was 3.87 µM (inactive). For the same molecule, the GI50 (DMS-114) was 2.49 µM (inactive), the GI50 (SF-539) was 7.91 µM (inactive) and the GI50 (SK-MEL-28) was 10.6 µM (inactive). For the same molecule, the GI50 (DLD-1) was 4.19 µM (inactive), the GI50 (TK-10) was 12.2 µM (inactive) and the GI50 (M19-MEL) was 1.55 µM (inactive). The GI50 (SK-MEL-2) was 13.6 µM (inactive), the GI50 (SNB-19) was 10.3 µM (inactive) and the GI50 (Hs-578T) was 1.32 µM (inactive). For the same molecule, the GI50 (DMS-273) was 7.69 µM (inactive), the GI50 (NCI-H522) was 2.55 µM (inactive) and the GI50 (NCI-H226) was 17.2 µM (inactive). The GI50 (SK-OV-3) was 21.7 µM (inactive), the GI50 (HCT-116) was 6.62 µM (inactive) and the GI50 (KM12) was 9.08 µM (inactive). For the same molecule, the GI50 (HL-60) was 0.984 µM (active), the GI50 (LOX IMVI) was 2.03 µM (inactive) and the GI50 (PC-3) was 7.38 µM (inactive). For the same molecule, the GI50 (Malme-3M) was 6.25 µM (inactive), the GI50 (ACHN) was 2.99 µM (inactive) and the GI50 (DU-145) was 19.2 µM (inactive). For the same molecule, the GI50 (CAKI-1) was 4.25 µM (inactive), the GI50 (OVCAR-4) was 4.4 µM (inactive) and the GI50 (A498) was 17.2 µM (inactive). The GI50 (OVCAR-3) was 2.24 µM (inactive), the GI50 (UACC-257) was 4.9 µM (inactive) and the GI50 (EKVX) was 14.7 µM (inactive). For the same molecule, the GI50 (CCRF-CEM) was 1.97 µM (inactive), the GI50 (MDA-MB-231) was 2.3 µM (inactive) and the GI50 (786-0) was 5.27 µM (inactive). The GI50 (MDA-N) was 2 µM (inactive), the GI50 (RXF 631) was 19.5 µM (inactive) and the GI50 (T47D) was 2.18 µM (inactive). For the same molecule, the GI50 (SF-268) was 6.93 µM (inactive), the GI50 (SN12C) was 3.19 µM (inactive) and the GI50 (MCF7) was 9.35 µM (inactive). For the same molecule, the GI50 (HCC 2998) was 16 µM (inactive), the GI50 (IGROV-1) was 12.5 µM (inactive) and the GI50 (HOP-62) was 13 µM (inactive). For the same molecule, the GI50 (OVCAR-8) was 4.66 µM (inactive), the GI50 (A549) was 17.5 µM (inactive) and the GI50 (RPMI-8226) was 2.35 µM (inactive). The GI50 (HT-29) was 23.8 µM (inactive), the GI50 (HOP-18) was 4.33 µM (inactive) and the GI50 (OVCAR-5) was 13.7 µM (inactive). For the same molecule, the GI50 (SK-MEL-5) was 2.39 µM (inactive), the GI50 (HOP-92) was 13.8 µM (inactive) and the GI50 (NCI-H460) was 10 µM (inactive). The GI50 (BT-549) was 14.3 µM (inactive), the GI50 (NCI-H23) was 2.67 µM (inactive) and the GI50 (SNB-78) was 10 µM (inactive). The GI50 (RXF 393) was 5.16 µM (inactive), the GI50 (M14) was 2.54 µM (inactive) and the GI50 (SF-295) was 11.8 µM (inactive). For the same molecule, the GI50 (HCT-15) was 5.32 µM, the GI50 (U-251) was 3.85 µM (inactive) and the GI50 (KM-20L2) was 22.7 µM (inactive). For the same molecule, the GI50 (UACC-62) was 3.08 µM (inactive), the GI50 (SR) was 2.63 µM (inactive) and the GI50 (MOLT-4) was 1.92 µM (inactive). The GI50 (SW-620) was 4 µM (inactive).
